# Test results: US20260364030A1, “NOVEL SELECTIVE INHIBITORS OF LYSYL OXIDASES” (Syntara Limited, priority 2022, published 2026)
# Experiments:
# [1] = target: Human recombinant LOXL4 (Homo sapiens, UniProt Q96JB6); assay: LOXL4 inhibition, Amplex Red oxidation assay; assay type: biochemical; conditions: 30 min incubation with enzyme at 37 °C
# Description: (§1) LOX and LOXL protein family members can be acquired as recombinant active proteins from commercial sources, or extracted from animal tissues like bovine aorta, tendons, pig skin; or prepared from cell cultures. The inhibitory effects of the compounds of the present invention were tested against the given LOX or LOXL preparation using a method based on the detection of hydrogen peroxide with an Amplex Red oxidation assay [Zhou et al, 1997]. The assay was developed using either 384 or 96 well format. Briefly, in a standard black, clear bottom 384 well plate assay 25 µL of a dilution of any of the isoenzymes and orthologues in 1.2 M urea, 50 mM sodium borate buffer (pH 8.2) were added into each well in the presence of […] and 0.5 mM pargyline (to inhibit SSAO and MAO-B and MAO-A, respectively; not necessary if the enzyme is from a recombinant or purified form). Test compounds were dissolved in DMSO and tested in a Concentration Response Curve (CRC) with 11 data points, typically in the micromolar or nanomolar range after incubation with the enzyme for 30 min at 37 °C. […] The fluorescence (RFU) was read every 2.5 min for 30 min at 37 °C, excitation 544 nm and emission 590 (Optima; BMG labtech). The slope/min of the kinetics for each well was calculated using MARS data analysis software (BMG labtech) and this value was used to deduce the IC50 value (Dotmatics). […]
# [2] = human patients with scleroderma; cited from earlier work
# [3] = tested on: SiHa cervical cancer cells; conditions: in vitro, hypoxic/anoxic conditions; cited from earlier work
# [4] = target: Human recombinant LOXL3 (Homo sapiens, UniProt P58215); assay: LOXL3 inhibition, Amplex Red oxidation assay; assay type: biochemical; conditions: 30 min incubation with enzyme at 37 °C
# Chain of Human recombinant LOXL3 (P58215 26-753): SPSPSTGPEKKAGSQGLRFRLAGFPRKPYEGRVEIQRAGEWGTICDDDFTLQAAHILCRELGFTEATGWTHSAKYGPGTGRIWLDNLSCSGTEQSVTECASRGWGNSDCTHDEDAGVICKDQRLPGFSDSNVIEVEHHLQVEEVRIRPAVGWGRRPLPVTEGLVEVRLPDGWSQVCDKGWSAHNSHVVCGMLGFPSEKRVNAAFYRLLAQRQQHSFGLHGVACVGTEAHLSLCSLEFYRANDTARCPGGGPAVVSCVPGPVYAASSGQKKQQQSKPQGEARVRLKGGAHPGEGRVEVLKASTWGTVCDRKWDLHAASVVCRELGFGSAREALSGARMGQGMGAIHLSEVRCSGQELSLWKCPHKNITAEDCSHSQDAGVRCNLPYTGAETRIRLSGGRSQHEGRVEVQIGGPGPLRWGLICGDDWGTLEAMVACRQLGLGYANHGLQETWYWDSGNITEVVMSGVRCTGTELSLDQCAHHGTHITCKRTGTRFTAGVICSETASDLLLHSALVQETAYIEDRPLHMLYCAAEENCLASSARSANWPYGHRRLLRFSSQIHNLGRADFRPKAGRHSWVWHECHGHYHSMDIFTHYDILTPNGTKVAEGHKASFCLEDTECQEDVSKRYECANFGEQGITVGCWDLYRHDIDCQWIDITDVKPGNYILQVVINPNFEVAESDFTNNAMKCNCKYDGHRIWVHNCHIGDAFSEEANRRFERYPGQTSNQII
# Description: as §1
# [5] = target: T1, LOXL1 (Homo sapiens, UniProt Q08397); assay: LOXL1 inhibition, Amplex Red oxidation assay; assay type: biochemical; conditions: 30 min incubation with enzyme at 37 °C
# T1 sequence (Q08397 96-574): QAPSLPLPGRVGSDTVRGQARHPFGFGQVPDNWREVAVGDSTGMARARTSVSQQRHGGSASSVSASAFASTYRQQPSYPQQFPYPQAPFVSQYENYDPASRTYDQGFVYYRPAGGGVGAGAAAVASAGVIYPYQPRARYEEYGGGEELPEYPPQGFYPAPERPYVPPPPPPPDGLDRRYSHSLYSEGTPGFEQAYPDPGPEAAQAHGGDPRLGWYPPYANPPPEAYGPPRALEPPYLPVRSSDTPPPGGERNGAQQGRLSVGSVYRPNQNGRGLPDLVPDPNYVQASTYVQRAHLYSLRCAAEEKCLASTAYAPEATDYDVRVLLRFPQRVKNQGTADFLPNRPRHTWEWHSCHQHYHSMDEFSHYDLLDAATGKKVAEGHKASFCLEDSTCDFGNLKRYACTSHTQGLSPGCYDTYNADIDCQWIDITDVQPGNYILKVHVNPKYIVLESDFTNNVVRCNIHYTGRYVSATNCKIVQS
# Description: as §1
# [6] = target: T2, Human recombinant SSAO/VAP-1 (Homo sapiens, UniProt Q16853); assay: Inhibition of human recombinant SSAO/VAP-1, fluorescent Amplex Red assay; assay type: biochemical; conditions: 30 min incubation at 37 °C; benzylamine 600 μM in reaction mixture
# T2 construct: a cloned cDNA template corresponding to residues 34-763 of human SSAO/VAP-1; TEV cleavage site (N); made in house; host or cells: CHO-K1 glycosylation mutant cell line, Lee 8 (vector assembled by Geneart AG)
# T2 sequence (Q16853 34-763): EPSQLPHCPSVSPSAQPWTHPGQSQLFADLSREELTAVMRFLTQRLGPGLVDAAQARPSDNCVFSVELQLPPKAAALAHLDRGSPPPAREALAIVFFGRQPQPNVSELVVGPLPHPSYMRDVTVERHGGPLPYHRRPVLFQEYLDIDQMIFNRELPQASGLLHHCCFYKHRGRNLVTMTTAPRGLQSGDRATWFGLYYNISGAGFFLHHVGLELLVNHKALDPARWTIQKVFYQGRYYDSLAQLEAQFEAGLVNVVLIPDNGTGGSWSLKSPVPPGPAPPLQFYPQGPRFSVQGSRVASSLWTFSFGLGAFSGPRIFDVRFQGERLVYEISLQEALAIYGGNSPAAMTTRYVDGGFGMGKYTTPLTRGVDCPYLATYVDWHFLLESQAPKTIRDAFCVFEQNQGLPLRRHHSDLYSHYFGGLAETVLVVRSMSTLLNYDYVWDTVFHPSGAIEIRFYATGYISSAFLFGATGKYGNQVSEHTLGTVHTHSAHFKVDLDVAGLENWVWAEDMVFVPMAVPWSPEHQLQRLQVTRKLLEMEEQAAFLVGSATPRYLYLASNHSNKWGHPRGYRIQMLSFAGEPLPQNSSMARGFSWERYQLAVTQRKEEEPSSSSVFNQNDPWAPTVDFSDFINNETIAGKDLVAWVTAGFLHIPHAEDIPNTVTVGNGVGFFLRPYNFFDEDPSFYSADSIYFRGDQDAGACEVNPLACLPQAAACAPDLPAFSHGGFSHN
# Description: Human recombinant SSAO/VAP-1 amine oxidase activity was determined using the coupled colorimetric method as described for monoamine oxidase, copper-containing amine oxidases and related enzymes [Holt A. and Palcic M., 2006]. Briefly, a cloned cDNA template corresponding to residues 34-763 of human SSAO/VAP-1, and incorporating a mouse Ig kappa (κ) signal sequence, N-terminal flag epitope tag and tobacco etch virus (TEV) cleavage site, was assembled in a mammalian expression vector (pLO-CMV) by Geneart AG. This vector containing human SSAO/VAP-1 residues was transfected into CHO-K1 glycosylation mutant cell line, Lee 8. A clone stably expressing human SSAO/VAP-1 was isolated and cultured in large scale. Active human SSAO/VAP-1 was purified and recovered using immunoaffinity chromatography. This was used as the source for SSAO/VAP-1 activity. A high-throughput fluorescent assay was developed using either 96 or 384 well format. Briefly, in a standard 384 well plate assay 25 μL of purified human SSAO/VAP-1 (0.25 μg/mL) in 0.1 M sodium phophate buffer (pH 7.4) was added into each well. […] The fluorescence unit (RFU) was read every 2.5 min for 30 min at 37 °C excitation 544 nm and emission 590 (Optima; BMG labtech). The slope/min of the kinetics for each well was calculated using MARS data analysis software (BMG labtech) and this value was used to deduce the IC50 value (Dotmatics).
# [7] = target: T3, Human MAO-B (Homo sapiens, UniProt P27338); assay: Inhibition of human recombinant MAO-B; assay type: biochemical; conditions: substrate benzylamine 100 μM
# T3 construct: purchased Sigma Aldrich
# T3 sequence (P27338 whole entry): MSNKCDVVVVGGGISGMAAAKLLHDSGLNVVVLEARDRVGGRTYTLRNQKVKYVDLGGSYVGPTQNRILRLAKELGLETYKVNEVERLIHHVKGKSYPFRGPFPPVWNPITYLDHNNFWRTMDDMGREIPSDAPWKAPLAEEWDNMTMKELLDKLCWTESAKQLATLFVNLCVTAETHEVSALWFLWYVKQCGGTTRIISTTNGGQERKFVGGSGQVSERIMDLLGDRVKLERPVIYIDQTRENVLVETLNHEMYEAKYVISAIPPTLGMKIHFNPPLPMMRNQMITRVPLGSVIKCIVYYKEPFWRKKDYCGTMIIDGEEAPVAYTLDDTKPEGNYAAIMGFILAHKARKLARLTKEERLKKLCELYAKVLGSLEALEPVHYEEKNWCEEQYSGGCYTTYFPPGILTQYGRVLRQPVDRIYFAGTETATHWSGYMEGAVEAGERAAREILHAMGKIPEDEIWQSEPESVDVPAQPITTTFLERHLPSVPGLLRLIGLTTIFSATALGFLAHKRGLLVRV
# [8] = Stability in topical formulation (purity profile at room temperature); assay type: physicochemical; conditions: for % Purity of Compound 1 in topical formulation: 1% Compound 1
# Chain of Human recombinant LOXL4 (Q96JB6 25-756): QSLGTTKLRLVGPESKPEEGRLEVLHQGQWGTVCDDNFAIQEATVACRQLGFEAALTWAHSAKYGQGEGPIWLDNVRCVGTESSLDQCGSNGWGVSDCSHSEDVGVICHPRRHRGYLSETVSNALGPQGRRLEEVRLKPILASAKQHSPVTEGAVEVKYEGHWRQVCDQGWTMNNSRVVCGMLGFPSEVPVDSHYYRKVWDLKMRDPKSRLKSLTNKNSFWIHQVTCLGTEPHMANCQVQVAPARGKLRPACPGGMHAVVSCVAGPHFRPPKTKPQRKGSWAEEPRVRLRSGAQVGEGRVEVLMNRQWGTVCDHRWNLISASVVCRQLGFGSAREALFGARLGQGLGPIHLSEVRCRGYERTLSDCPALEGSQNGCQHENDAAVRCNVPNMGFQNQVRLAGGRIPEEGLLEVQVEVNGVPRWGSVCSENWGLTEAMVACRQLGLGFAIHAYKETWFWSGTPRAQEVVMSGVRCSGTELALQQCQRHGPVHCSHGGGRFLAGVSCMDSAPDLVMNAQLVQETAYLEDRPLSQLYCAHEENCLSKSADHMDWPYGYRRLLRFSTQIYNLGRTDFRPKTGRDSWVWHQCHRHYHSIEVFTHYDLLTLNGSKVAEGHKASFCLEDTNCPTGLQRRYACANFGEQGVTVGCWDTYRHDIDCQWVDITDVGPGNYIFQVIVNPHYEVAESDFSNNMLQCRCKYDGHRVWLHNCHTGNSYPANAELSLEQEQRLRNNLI
IC50 [6] [µM],IC50 [7] [µM],"% Purity of Compound 1 in topical formulation ([8]; room temperature, t = 3 months, 129600 min) [%]","% Purity of Compound 1 in topical formulation ([8]; room temperature, t = 6 months, 259200 min) [%]","% Purity of Compound 1 in topical formulation ([8]; room temperature, t = 9 months, 388800 min) [%]",% Purity of Compound 1 in topical formulation ([8]; t = 0) [%],"Compound peak percentage in topical formulation ([8]; topical formulation 1, at all tested time points)",Structure (SMILES),IC50 [1] [µM],Tolerability [2],Invasion of SiHa cells [3],IC50 [4] [µM],IC50 [5] [µM]
–,–,–,–,–,–,–,"N#CCCN [BAPN, β-aminopropionitrile, reference compound]",0.3,poorly tolerated,repressed,0.5,2.5
> 30,> 30,99.81,99.82,99.79,99.83,above 99.5%,"NC/C(=C\F)CS(=O)(=O)c1ccccc1 [Compound 1, (E)-3-fluoro-2-((phenylsulfonyl)methyl)prop-2-en-1-amine]",4.7,–,–,5.9,13.2
